Values joined by “and” are separate entries in the source; they are usually repeats but may differ in a detail not shown here. Equal values may be shown once. Toxic doses and inconclusive results are not listed.
Tested on: BDF1 mice, P815 leukemia ip, survival T/C
Test: NCI In Vivo Anticancer Drug Screen. Data for tumor model P815 Mast Cell Leukemia (Ascitic) (intraperitoneal) in B6D2F1 (BDF1) mice
Details: higher = longer survival
Method: The antitumor activity of compounds was measured in mice bearing transplantable tumors. Survival or tumor size were measured and the results are expressed as the measurement made in the treated group (T) divided by the measurement made in the vehicle treated control group (C). The tumor model used in this assay is P815 Mast Cell Leukemia (Ascitic) (intraperitoneal) in B6D2F1 (BDF1) mice

[1] = endpoint: survival time, mean or median, dose: 8.0 mg/kg/injection, schedule: Q01DX010 (ip), vehicle: saline
[2] = endpoint: survival time, mean or median, dose: 25.0 mg/kg/injection, schedule: Q01DX010 (ip), vehicle: saline
[3] = endpoint: survival time, mean or median, dose: 50.0 mg/kg/injection, schedule: Q01DX010 (ip), vehicle: saline
[4] = endpoint: survival time, mean or median, dose: 100.0 mg/kg/injection, schedule: Q01DX010 (ip), vehicle: saline

## CNc1nc(Nc2ccc(C3=NCCN3)cc2)nc(Nc2ccc(C3=NCCN3)cc2)n1
endpoint: survival time, mean or median, dose: 13.3 mg/kg/injection, schedule: Q01DX010 (ip), vehicle: saline
  T/C: 108 % of control
endpoint: survival time, mean or median, dose: 20.0 mg/kg/injection, schedule: Q01DX010 (ip), vehicle: saline
  T/C: 108 % of control
endpoint: survival time, mean or median, dose: 30.0 mg/kg/injection, schedule: Q01DX010 (ip), vehicle: saline
  T/C: 108 % of control
endpoint: survival time, mean or median, dose: 45.0 mg/kg/injection, schedule: Q01DX010 (ip), vehicle: saline
  T/C: 116 % of control

## CC(CCC(C)OS(C)(=O)=O)OS(C)(=O)=O (stereo not drawn)
endpoint: survival time, mean or median, dose: 2.0 mg/kg/injection, schedule: Q01DX010 (ip), vehicle: saline
  T/C: 100 % of control
endpoint: survival time, mean or median, dose: 4.0 mg/kg/injection, schedule: Q01DX010 (ip), vehicle: saline
  T/C: 100 % of control and 105 % of control
[1]
  T/C: 100 % of control and 105 % of control
endpoint: survival time, mean or median, dose: 16.0 mg/kg/injection, schedule: Q01DX010 (ip), vehicle: saline
  T/C: 120 % of control

## C1CN1c1nc(N2CC2)nc(N2CC2)n1
endpoint: survival time, mean or median, dose: 0.13 mg/kg/injection, schedule: Q01DX010 (ip), vehicle: saline
  T/C: 111 % of control
endpoint: survival time, mean or median, dose: 0.25 mg/kg/injection, schedule: Q01DX010 (ip), vehicle: saline
  T/C: 111 % of control
endpoint: survival time, mean or median, dose: 125.0 micrograms/kg/injection, schedule: Q01DX010 (ip), vehicle: saline
  T/C: 100 % of control
endpoint: survival time, mean or median, dose: 250.0 micrograms/kg/injection, schedule: Q01DX010 (ip), vehicle: saline
  T/C: 105 % of control
endpoint: survival time, mean or median, dose: 1000.0 micrograms/kg/injection, schedule: Q01DX010 (ip), vehicle: saline
  T/C: 94 % of control

## O=C(Nc1ccc(C2=NCCN2)cc1)c1ccc(C(=O)Nc2ccc(C3=NCCN3)cc2)c([N+](=O)[O-])c1
endpoint: survival time, mean or median, dose: 6.0 mg/kg/injection, schedule: Q01DX010 (ip), vehicle: saline
  T/C: 171 % of control
[1]
  T/C: 284 % of control
endpoint: survival time, mean or median, dose: 12.0 mg/kg/injection, schedule: Q01DX010 (ip), vehicle: saline
  T/C: 92 % of control

## Nc1nc(N)c2nc(CNc3ccc(C(=O)NC(CCC(=O)O)C(=O)O)cc3)cnc2n1 (stereo not drawn)
endpoint: survival time, mean or median, dose: 0.03 mg/kg/injection, schedule: Q01DX010 (ip), vehicle: other
  T/C: 102 % of control and 105 % of control
endpoint: survival time, mean or median, dose: 0.05 mg/kg/injection, schedule: Q01DX010 (ip), vehicle: other
  T/C: 100 % of control and 102 % of control
endpoint: survival time, mean or median, dose: 0.1 mg/kg/injection, schedule: Q01DX010 (ip), vehicle: other
  T/C: 100 % of control and 108 % of control
endpoint: survival time, mean or median, dose: 0.2 mg/kg/injection, schedule: Q01DX010 (ip), vehicle: other
  T/C: 105 % of control and 108 % of control

## C[C@H]1C(=O)O[C@@H]2CCN3CC=C(COC(=O)[C@](C)(O)[C@@]1(C)O)[C@H]23
endpoint: survival time, mean or median, dose: 3.13 mg/kg/injection, schedule: Q01DX010 (ip), vehicle: saline
  T/C: 94 % of control and 100 % of control
endpoint: survival time, mean or median, dose: 6.25 mg/kg/injection, schedule: Q01DX010 (ip), vehicle: saline
  T/C: 100 % of control and 105 % of control
endpoint: survival time, mean or median, dose: 12.5 mg/kg/injection, schedule: Q01DX010 (ip), vehicle: saline
  T/C: 88 % of control and 94 % of control
[2]
  T/C: 100 % of control

## O=C1C(NC(=O)C2CCCCC2)=C(N2CC2)C(=O)C(NC(=O)C2CCCCC2)=C1N1CC1
[3]
  T/C: 88 % of control
[4]
  T/C: 94 % of control

## NC(=O)c1[nH]nc(C2OC(CO)C(O)C2O)c1O (stereo not drawn)
endpoint: median survival time, dose: 1.56 mg/kg/injection, schedule: Q04DX003 (ip), vehicle: saline
  T/C: 102 % of control
endpoint: median survival time, dose: 2.59 mg/kg/injection, schedule: Q04DX003 (ip), vehicle: saline
  T/C: 104 % of control
endpoint: median survival time, dose: 4.32 mg/kg/injection, schedule: Q04DX003 (ip), vehicle: saline
  T/C: 103 % of control
endpoint: median survival time, dose: 7.2 mg/kg/injection, schedule: Q04DX003 (ip), vehicle: saline
  T/C: 121 % of control
endpoint: median survival time, dose: 12.0 mg/kg/injection, schedule: Q04DX003 (ip), vehicle: saline
  T/C: 114 % of control
endpoint: median survival time, dose: 20.0 mg/kg/injection, schedule: Q04DX003 (ip), vehicle: saline
  T/C: 104 % of control

## O=C(O)c1[nH]c(=O)[nH]c(=O)c1F
endpoint: survival time, mean or median, dose: 13.0 mg/kg/injection, schedule: Q01DX015 (ip), vehicle: carboxymethylcellulose (CMC)
  T/C: 86 % of control

## O=C(Nc1ccc(C2=NCCN2)cc1)Nc1cccc(NC(=O)Nc2ccc(C3=NCCN3)cc2)c1
endpoint: survival time, mean or median, dose: 120.0 mg/kg/injection, schedule: Q01DX010 (ip), vehicle: saline
  T/C: 258 % of control and 276 % of control
endpoint: survival time, mean or median, dose: 240.0 mg/kg/injection, schedule: Q01DX010 (ip), vehicle: saline
  T/C: 88 % of control and 92 % of control

## O=c1cn[nH]c(=O)[nH]1
endpoint: survival time, mean or median, dose: 62.5 mg/kg/injection, schedule: Q01DX010 (ip), vehicle: saline
  T/C: 91 % of control and 95 % of control
endpoint: survival time, mean or median, dose: 125.0 mg/kg/injection, schedule: Q01DX010 (ip), vehicle: saline
  T/C: 91 % of control and 100 % of control
endpoint: survival time, mean or median, dose: 250.0 mg/kg/injection, schedule: Q01DX010 (ip), vehicle: saline
  T/C: 95 % of control
endpoint: survival time, mean or median, dose: 500.0 mg/kg/injection, schedule: Q01DX010 (ip), vehicle: saline
  T/C: 100 % of control and 104 % of control

## CSc1ncnc2nc[nH]c12
[2]
  T/C: 100 % of control
[3]
  T/C: 100 % of control and 115 % of control
[4]
  T/C: 100 % of control and 105 % of control
endpoint: survival time, mean or median, dose: 200.0 mg/kg/injection, schedule: Q01DX010 (ip), vehicle: saline
  T/C: 105 % of control and 110 % of control
